Reference: article PMC7377239, “Cardiovascular Effects of Polychlorinated Biphenyls and Their Major Metabolites” (Environmental Health Perspectives, 2020)
Structures can show the parent of a compound that is named as a salt. Where two headings read alike, the source gives them in different places.

Columns and labels:
[1] = system: iCell cardiomyocytes (human iPSC-derived cardiomyocytes); experiment: High-content imaging of cytotoxicity and mitochondrial integrity in iPSC-CMs; type: cell-based; details: Homo sapiens; for viability at 0.01 µM / activity at 0.01 µM / viability at 0.1 µM / activity at 0.1 µM / viability at 1 µM / activity at 1 µM / viability at 10 µM / activity at 10 µM / viability at 100 µM / activity at 100 µM: Cardiomyocyte, 0.00 µM = 100.00; for viability at 0.1 µM / activity at 0.1 µM: 0.10 µM; for minimal effective concentration: iPSC-CM
How it was run: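 Cardiomyocytes grown on gelatinized 384-well plates received fresh medium on the experiment day and were then exposed to chemicals at 0.01–100μM. Nuclei and mitochondria were labeled with Hoechst 33342 and MitoTracker™ Orange, then fixed, and imaged on an ImageXpress® Micro Confocal system. Four-parameter logistic concentration–response fits in R, with a one-standard-deviation vehicle cutoff, gave point-of-departure values.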

HUVECs = experiment: High-content imaging cytotoxicity in HUVECs, 24 h; type: cell-based, human; details: Homo sapiens, HUVEC, 24 h, HUVECs; for viability at 0.01 µM / activity at 0.01 µM / viability at 0.1 µM / activity at 0.1 µM / viability at 1 µM / activity at 1 µM / viability at 10 µM / activity at 10 µM / viability at 100 µM / activity at 100 µM: 0.00 µM = 100.00; for viability at 0.1 µM / activity at 0.1 µM: 0.10 µM; for minimal effective concentration: top concentration 100.00 µM
How it was run: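 Confluent HUVEC monolayers, passages 1–5, received test chemicals for 24 h. Cytotoxicity was scored from triple-stain high-content images, with PODs defined by a one-SD deviation from 0.5% DMSO vehicle controls.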

[2] = 24 hr, read-out: huvec.cyto.24hr
[3] = 24 hr, read-out: huvec.mito.24hr
[4] = 24 hr, read-out: huvec.mitoint.24hr
[5] = 24 hr, read-out: huvec.nma.24hr
[6] = 24 hrs, read-out: huvec.tc.24hrs

Question: With `O=S(=O)(O)Oc1cccc(-c2ccc(Cl)cc2)c1` [3'-yl PCB 3 sulfate] as the compound, how does the viability at 0.01 µM ([1]; 1.5 h, read-out: cm.cam.90min) read?
Answer: 99.5%

Question: What about the activity at 0.01 µM ([1]; 1.5 h, read-out: cm.mii.90min) of the same compound?
Answer: 98.4%

Question: What about the activity at 0.01 µM ([1]; 1.5 h, read-out: cm.mito.90min) of the same compound?
Answer: 99.8%

Question: And the viability at 0.01 µM ([1]; 1.5 h, read-out: cm.tc.90min)?
Answer: 99.9%

Question: What about the viability at 0.1 µM ([1]; 1.5 h, read-out: cm.cam.90min) of the same compound?
Answer: 98.2%

Question: What about the activity at 0.1 µM ([1]; 1.5 h, read-out: cm.mii.90min) of the same compound?
Answer: 97.1%

Question: What about the activity at 0.1 µM ([1]; 1.5 h, read-out: cm.mito.90min) of the same compound?
Answer: 98.3%

Question: What about the viability at 0.1 µM ([1]; 1.5 h, read-out: cm.tc.90min) of the same compound?
Answer: 98.4%

Question: What about the viability at 1 µM ([1]; 1.5 h, read-out: cm.cam.90min) of the same compound?
Answer: 102%

Question: What about the activity at 1 µM ([1]; 1.5 h, read-out: cm.mii.90min) of the same compound?
Answer: 99.8%

Question: What about the activity at 1 µM ([1]; 1.5 h, read-out: cm.mito.90min) of the same compound?
Answer: 102%

Question: What about the viability at 1 µM ([1]; 1.5 h, read-out: cm.tc.90min) of the same compound?
Answer: 102%

Question: What about the viability at 10 µM ([1]; 1.5 h, read-out: cm.cam.90min) of the same compound?
Answer: 95.4%

Question: What about the activity at 10 µM ([1]; 1.5 h, read-out: cm.mii.90min) of the same compound?
Answer: 104%

Question: What about the activity at 10 µM ([1]; 1.5 h, read-out: cm.mito.90min) of the same compound?
Answer: 95.4%

Question: And the viability at 10 µM ([1]; 1.5 h, read-out: cm.tc.90min)?
Answer: 95.3%

Question: What about the viability at 100 µM ([1]; 1.5 h, read-out: cm.cam.90min) of the same compound?
Answer: 99%

Question: What about the activity at 100 µM ([1]; 1.5 h, read-out: cm.mii.90min) of the same compound?
Answer: 91.3%

Question: What about the activity at 100 µM ([1]; 1.5 h, read-out: cm.mito.90min) of the same compound?
Answer: 99.3%

Question: What about the viability at 100 µM ([1]; 1.5 h, read-out: cm.tc.90min) of the same compound?
Answer: 99.3%

Question: And the viability at 0.01 µM ([1]; 24 h, read-out: cm.cam.24hrs)?
Answer: 97.1%

Question: What about the activity at 0.01 µM ([1]; 24 h, read-out: cm.mii.24hrs) of the same compound?
Answer: 93.8%

Question: And the activity at 0.01 µM ([1]; 24 h, read-out: cm.mito.24hrs)?
Answer: 95.4%

Question: And the viability at 0.01 µM ([1]; 24 h, read-out: cm.tc.24hrs)?
Answer: 98%

Question: What about the viability at 0.1 µM ([1]; 24 h, read-out: cm.cam.24hrs) of the same compound?
Answer: 105%

Question: And the activity at 0.1 µM ([1]; 24 h, read-out: cm.mii.24hrs)?
Answer: 89.9%

Question: What about the activity at 0.1 µM ([1]; 24 h, read-out: cm.mito.24hrs) of the same compound?
Answer: 105%

Question: What about the viability at 0.1 µM ([1]; 24 h, read-out: cm.tc.24hrs) of the same compound?
Answer: 105%

Question: And the viability at 1 µM ([1]; 24 h, read-out: cm.cam.24hrs)?
Answer: 101%

Question: What about the activity at 1 µM ([1]; 24 h, read-out: cm.mii.24hrs) of the same compound?
Answer: 100%

Question: And the activity at 1 µM ([1]; 24 h, read-out: cm.mito.24hrs)?
Answer: 99.9%

Question: And the viability at 1 µM ([1]; 24 h, read-out: cm.tc.24hrs)?
Answer: 102%

Question: And the viability at 10 µM ([1]; 24 h, read-out: cm.cam.24hrs)?
Answer: 103%

Question: And the activity at 10 µM ([1]; 24 h, read-out: cm.mii.24hrs)?
Answer: 79.2%

Question: And the activity at 10 µM ([1]; 24 h, read-out: cm.mito.24hrs)?
Answer: 104%

Question: What about the viability at 10 µM ([1]; 24 h, read-out: cm.tc.24hrs) of the same compound?
Answer: 103%

Question: What about the viability at 100 µM ([1]; 24 h, read-out: cm.cam.24hrs) of the same compound?
Answer: 97%

Question: What about the activity at 100 µM ([1]; 24 h, read-out: cm.mii.24hrs) of the same compound?
Answer: 88.7%

Question: What about the activity at 100 µM ([1]; 24 h, read-out: cm.mito.24hrs) of the same compound?
Answer: 97.8%

Question: And the viability at 100 µM ([1]; 24 h, read-out: cm.tc.24hrs)?
Answer: 97.2%

Question: And the minimal effective concentration ([1]; 1.5 h, read-out: cm.cam.90min POD)?
Answer: 100 µM

Question: What about the minimal effective concentration ([1]; 1.5 h, read-out: cm.mii.90min POD) of the same compound?
Answer: 89.9 µM

Question: And the minimal effective concentration ([1]; 1.5 h, read-out: cm.mito.90min POD)?
Answer: 100 µM

Question: And the minimal effective concentration ([1]; 1.5 h, read-out: cm.tc.90min POD)?
Answer: 100 µM

Question: What about the minimal effective concentration ([1]; 24 h, read-out: cm.cam.24hrs POD) of the same compound?
Answer: 100 µM

Question: What about the minimal effective concentration ([1]; 24 h, read-out: cm.mii.24hrs POD) of the same compound?
Answer: 100 µM

Question: And the minimal effective concentration ([1]; 24 h, read-out: cm.mito.24hrs POD)?
Answer: 100 µM

Question: What about the minimal effective concentration ([1]; 24 h, read-out: cm.tc.24hrs POD) of the same compound?
Answer: 100 µM

Question: What about the viability at 0.01 µM (HUVECs; [2]) of the same compound?
Answer: 96%

Question: And the activity at 0.01 µM (HUVECs; [3])?
Answer: 95.2%

Question: And the activity at 0.01 µM (HUVECs; [4])?
Answer: 93.5%

Question: And the activity at 0.01 µM (HUVECs; [5])?
Answer: 100%

Question: What about the viability at 0.1 µM (HUVECs; [2]) of the same compound?
Answer: 97%

Question: What about the activity at 0.1 µM (HUVECs; [3]) of the same compound?
Answer: 97.2%

Question: What about the activity at 0.1 µM (HUVECs; [4]) of the same compound?
Answer: 105%

Question: And the activity at 0.1 µM (HUVECs; [5])?
Answer: 101%

Question: What about the viability at 1 µM (HUVECs; [2]) of the same compound?
Answer: 92.7%

Question: What about the activity at 1 µM (HUVECs; [3]) of the same compound?
Answer: 92.1%

Question: And the activity at 1 µM (HUVECs; [4])?
Answer: 104%

Question: What about the activity at 1 µM (HUVECs; [5]) of the same compound?
Answer: 101%

Question: What about the viability at 10 µM (HUVECs; [2]) of the same compound?
Answer: 119%

Question: What about the activity at 10 µM (HUVECs; [3]) of the same compound?
Answer: 118%

Question: What about the activity at 10 µM (HUVECs; [4]) of the same compound?
Answer: 89.3%

Question: And the activity at 10 µM (HUVECs; [5])?
Answer: 92.6%

Question: And the viability at 100 µM (HUVECs; [2])?
Answer: 88%

Question: What about the activity at 100 µM (HUVECs; [3]) of the same compound?
Answer: 87.5%

Question: And the activity at 100 µM (HUVECs; [4])?
Answer: 102%

Question: And the activity at 100 µM (HUVECs; [5])?
Answer: 94.9%

Question: What about the minimal effective concentration (HUVECs; 24 hr, read-out: huvec.cyto.24hr POD) of the same compound?
Answer: 100 µM

Question: What about the minimal effective concentration (HUVECs; 24 hr, read-out: huvec.mito.24hr POD) of the same compound?
Answer: 100 µM

Question: And the minimal effective concentration (HUVECs; 24 hr, read-out: huvec.mitoint.24hr POD)?
Answer: 100 µM

Question: And the minimal effective concentration (HUVECs; 24 hr, read-out: huvec.nma.24hr POD)?
Answer: 100 µM

Question: What about the viability at 0.01 µM (HUVECs; [6]) of the same compound?
Answer: 96%

Question: And the viability at 0.1 µM (HUVECs; [6])?
Answer: 97.1%

Question: What about the viability at 1 µM (HUVECs; [6]) of the same compound?
Answer: 92.7%

Question: What about the viability at 10 µM (HUVECs; [6]) of the same compound?
Answer: 119%

Question: What about the viability at 100 µM (HUVECs; [6]) of the same compound?
Answer: 88.2%

Question: And the minimal effective concentration (HUVECs; 24 hrs, read-out: huvec.tc.24hrs POD)?
Answer: 100 µM
